Common to all, as to type: cell-based
For one test, the system named is IMR32 cells. As to the kind of experiment: Quantitative metabolomic profiling of IMR32 cells. How it is done:
Quantitative Metabolomic Profiling. For polar metabolite profiling experiments, cells were grown in 15 cm plates and cultured in RPMI supplemented with 10% FBS, 2 mM L-glutamine and 1% P/S prior to media replacement containing either vehicle (DMSO) or the indicated dose of CBR-470-1. Following incubation for the appropriate time, cells were scraped into ice-cold PBS and isolated by centrifugation at 1,400 g at 4° C. Cell pellets were resuspended in 300 μl of an 80:20 mixture of cold MeOH/H2O, an internal standard was added (10 nmol d3-serine; Sigma Aldrich), and the suspension was sonicated (Fisher Scientific FB-505) for 5 seconds followed by a 10 minute centrifugation at 16,000 g. […] Metabolite peak transitions and retention times are listed in Table 2 and were confirmed by running standards for measured glycolytic, PPP, CAC and co-factor metabolites. 2-phosphoglycerate and 3-phosphoglycerate isomers were quantified in aggregate (2PG/3PG). Relative metabolite abundance was quantified by integrated peak area for the given MRM-transition, and all metabolite levels were normalized to internal standard extracted ion intensity values for d3-serine. These parameters were used to quantify all metabolites, with the exception of 1,3-BPG and MGx, which required chemical derivitization to stable intermediates prior to LC-MS/MS quantification, as previously reported^20, 33. […]

Another test concerns Human lung fibroblasts. As to the kind of experiment: TGF-beta-induced collagen and SMA in human lung fibroblasts (Western blot). Conditions: increasing doses, day 0, 1, 2. How it is done: FIG. 22. Human lung fibroblasts were treated with TGF-beta and increasing doses of CBR-470 and measured collagen and alpha-smooth muscle actin (a-SMA), a marker for myofibroblast differentiation at day 0, 1, and 2.
Fibrosis is defined by the overgrowth, hardening, and/or scarring of various tissues and is attributed to excess deposition of extracellular matrix components including collagen. Fibrosis is the end result of chronic inflammatory reactions induced by a variety of stimuli including persistent infections, autoimmune reactions, allergic responses, chemical insults, radiation, and tissue injury. Fibroblasts under stimulation by transforming growth factor (TGF)-β, a key cytokine in the pathogenesis of IPF, alter their gene expression profile with de novo expression of cytoskeletal and contractile proteins normally found within smooth muscle cells, and components of the extracellular matrix, including collagen. Fibroblast cells were treated with TGF-β for 24 or 48 hours or left untreated (0). Collagen was detected by Westernblot using an anti-collagen antibody (Cedarlane, CL50111AP-1, 1:3000 dilution). SMA was detected with an anti-SMA antibody from Sigma (T6074, 1:20000 dilution). […] Collagen and SMA production are biomarkers of fibrotic phenotypes in vivo (FIG. 22).
For orientation: Immunoblotting shows a protein as a band on a membrane.

A further test concerns 20 line panel. The experiment in a line: Viability in 20 cell line panel correlated with CCLE mRNA levels. The protocol:
FIG. 36A-B. Viability assays performed in each cell line with compound treatment with CBR-470-1. Concentrations ranging from 0.1 to 30 micromolar for 48 hr. Viability was measured using Cell titer glo ATP quantification assay. Representative curves for three cell lines at 48 are shown on the left in (A). Table of 20 cell line IC50 values are shown in (B).
It was analyzed whether 1,3-BPG, which is directly metabolized by PGK1, could be involved in signaling to the KEAP1-NRF2 pathway via phosphoglyceryl-lysine (pgK) modification of KEAP1. […] Viability assays were performed in IMR32, OVCAR3, and A549 cell lines with compound treatment with CBR-470-1. Concentrations ranging from 0.1 to 30 micromolar for 48 hr. Viability was measured using Cell titer glo ATP quantification assay. Representative curves for three cell lines at 48 are shown in (FIG. 36A). Table of 20 cell line IC50 values are shown in (FIG. 36B).
Each point in FIG. 37 represents the correlation value (R^2) between cell line IC50 value (i.e. sensitivity) to CBR-470 plotted against the relative mRNA level (Z-score) for that cell line, and all other cell lines in the 20 line panel. mRNA levels were curated from the cancer cell line encyclopedia (CCLE).

The subject of test [1] is NRF2 target genes NQO1 and HMOX1. As to the kind of experiment: Quantitative RT-PCR of NRF2 target genes in IMR32 cells. Conditions: MGx 1 mM. How it is done:
FIG. 2A-F. Methylglyoxal modifies KEAP1 to form a covalent, high molecular weight dimer and activate NRF2 signaling. (a) Time-course, anti-FLAG Western blot analysis of whole cell lysates from HEK293T cells expressing FLAG-KEAP1 treated with DMSO or CBR-470-1. (b) Western blot monitoring of FLAG-KEAP1 migration in HEK293 T lysates after incubation with central glycolytic metabolites in vitro (1 and 5 mM, left and right for each metabolite). (c) FLAG-KEAP1 (red) and β-actin (green) from HEK293T cells treated with MGx (5 mM) for 8 hr. (d) Relative NQO1 and HMOX1 mRNA levels in IMR32 cells treated with MGx (1 mM) or water control (n=3). (e) LC-MS/MS quantitation of cellular MGx levels in IMR32 cells treated with CBR-470-1 relative to DMSO (n=4). (f) ARE-LUC reporter activity in HEK293T cells with transient shRNA knockdown of GLO1 (n=8). Univariate two-sided t-test (d, f); data are mean±SEM of biologically independent samples.
Quantitative RT-PCR. Cells were collected by trypsinization and subsequent centrifugation at 500 g. […] Quantitative RT-PCR reactions were measured on a Viia 7 Real-Time PCR system (Thermo) using a Clontech SYBR green-based master mix. Reactions were normalized to TUBG1 levels for each biological replicate and relative transcript abundance calculated using the comparative Ct method.

This note sets out measurements from US12048686B2, “Compositions and methods for activating NRF2-dependent gene expression” (The University of Chicago, priority 2018, dated 2024).

The structures appear in SMILES notation. “Also recorded” adds a separate entry of the source.

Regarding `CC(C)CN[C@H]1CS(=O)(=O)C[C@@H]1S(=O)(=O)c1ccc(Cl)cc1` [CBR-470-1], in the test on IMR32 cells, the “downstream metabolites (3PG, lactate)” value is given as “depletion of downstream metabolites” and the “metabolite levels upstream of PGK1 (BPG, GAP)” value is on record as “rapid increase in metabolite levels upstream of PGK1”. In addition, in the test on Human lung fibroblasts, the “alpha-smooth muscle actin (a-SMA), marker for myofibroblast differentiation” value is “dose- and time-dependent inhibition of collagen and smooth-muscle actin (SMA) protein production; also recorded: inhibited myofibroblast differentiation and collagen protein expression in a dose dependent manner”; the collagen protein entry is “dose- and time-dependent inhibition of collagen and smooth-muscle actin (SMA) protein production; also recorded: inhibited myofibroblast differentiation and collagen protein expression in a dose dependent manner”. Moreover, in the test with 20 line panel, the “sensitivity (IC50) versus GLO1 mRNA level” value is “high GLO1 exhibit higher sensitivity” and the “sensitivity (IC50) versus NRF2 target gene expression” value is “lower NRF2 target gene expression show increased sensitivity”.
In the case of `CC(=O)C=O` [MGx, methylglyoxal, reference compound], the “expression of NRF2 target genes NQO1 and HMOX1” value in test [1] was “functionally activated expression of the downstream NRF2 target genes NQO1 and HMOX1”.
